USRE49687E1, “Thienopyrimidine and thienopyridine compounds and methods of use thereof” (The Regents of The University of Michigan, priority 2014, dated 2023)

Target: T1, menin-MLL interaction (Homo sapiens, UniProt O00255)
T1 sequence (O00255 1-610): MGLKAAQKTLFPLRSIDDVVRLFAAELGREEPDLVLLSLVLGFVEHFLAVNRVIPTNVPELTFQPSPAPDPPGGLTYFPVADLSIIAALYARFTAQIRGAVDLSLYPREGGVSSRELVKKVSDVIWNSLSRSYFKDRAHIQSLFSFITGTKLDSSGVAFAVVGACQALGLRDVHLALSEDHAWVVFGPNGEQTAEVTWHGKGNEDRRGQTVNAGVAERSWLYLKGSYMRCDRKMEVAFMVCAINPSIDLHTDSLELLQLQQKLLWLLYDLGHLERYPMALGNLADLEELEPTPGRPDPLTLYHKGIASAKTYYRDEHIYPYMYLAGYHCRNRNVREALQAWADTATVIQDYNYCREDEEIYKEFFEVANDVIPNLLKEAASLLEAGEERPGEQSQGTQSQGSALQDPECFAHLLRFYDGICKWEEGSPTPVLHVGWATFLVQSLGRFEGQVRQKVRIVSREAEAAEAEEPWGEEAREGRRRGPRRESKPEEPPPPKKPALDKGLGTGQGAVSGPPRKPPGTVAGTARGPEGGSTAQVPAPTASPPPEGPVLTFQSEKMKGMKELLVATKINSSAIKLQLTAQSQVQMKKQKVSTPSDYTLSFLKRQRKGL
Assay: Fluorescence polarization (FP) competition assay of the menin-MLL interaction
Format: binding
Details: inhibition of the menin-MLL interaction; read-out: IC50 values for Table 1 inhibitors of menin

Row | Compound | IC50 [nM]
1 | C=CS(=O)(=O)N1CCN(CCn2c(C#N)cc3c(C)c(CN4CCC(Nc5ncnc6sc(CC(F)(F)F)cc56)CC4)ccc32)CC1 [Compound 3, 4-methyl-1-(2-(4-vinylsulfonylpiperazin-1-yl)ethyl)-5-((4-((6-(2,2,2-trifluoroethyl)thieno[2,3-d]pyrimidin-4-yl)amino)piperidin-1-yl)methyl)-1H-indole-2-carbonitrile] | < 30
2 | Cc1c(CN2CCC(Nc3ncnc4sc(CC(F)(F)F)cc34)CC2)ccc2c1cc(C#N)n2CC(O)c1cccc(S(C)(=O)=O)c1 (centres unmarked) [Compound 197] | 30 to 100
3 | C=CC(=O)Nc1ccc(CCn2c(C#N)cc3c(C)c(CN4CCC(Nc5ncnc6sc(CC(F)(F)F)cc56)CC4)ccc32)cc1P(C)(C)=O [Compound 199] | < 30
4 | Cc1c(CN2CCC(Nc3ncnc4sc(CC(F)(F)F)cc34)CC2)ccc2c1cc(C#N)n2CCc1ccc(P(C)(C)=O)cc1 [Compound 202] | 30 to 100
5 | C=CC(=O)Nc1ccc(CCn2c(C#N)cc3c(C)c(CN4CCC(Nc5ncnc6sc(CC(F)(F)F)cc56)CC4)ccc32)cc1P(=O)(CC)CC [Compound 203] | < 30
6 | Cc1c(CN2CCC(Nc3ncnc4sc(CC(F)(F)F)cc34)CC2)ccc2c1cc(C#N)n2CCc1cccc(P(C)(C)=O)c1 [Compound 204] | 30 to 100
7 | CP(C)(=O)c1cc2cc(CN3CCC(Nc4ncnc5sc(CC(F)(F)F)cc45)CC3)ccc2[nH]1 [Compound 205] | > 1000
8 | C=CC(=O)Nc1ccc(CCn2c(C#N)cc3c(C)c(CN4CCC(Nc5ncnc6sc(CC(F)(F)F)cc56)CC4)ccc32)cc1P(=O)(C(C)C)C(C)C [Compound 206] | 100 to 1000
9 | C[Si](C)(C)CCOCn1c(P(C)(C)=O)cc2cc(CN3CCC(Nc4ncnc5sc(CC(F)(F)F)cc45)CC3)ccc21 [Compound 207] | > 1000
10 | C=CC(=O)N1CCC(Cn2c(C#N)cc3c(C)c(CN4CCC(Nc5ncnc6sc(CC(F)(F)F)cc56)CC4)ccc32)C1 (centres unmarked) [Compound 208] | 30 to 100
11 | C=CC(=O)Nc1ccc(C(C)(O)Cn2c(C#N)cc3c(C)c(CN4CCC(Nc5ncnc6sc(CC(F)(F)F)cc56)CC4)ccc32)cn1 (centres unmarked) [Compound 209] | 30 to 100
12 | C=CC(=O)N1CCC(C(O)Cn2c(C#N)cc3c(C)c(CN4CCC(Nc5ncnc6sc(CC(F)(F)F)cc56)CC4)ccc32)CC1 (centres unmarked) [Compound 210] | 100 to 1000
13 | CCC(=O)N1CCC(C(O)Cn2c(C#N)cc3c(C)c(CN4CCC(Nc5ncnc6sc(CC(F)(F)F)cc56)CC4)ccc32)CC1 (centres unmarked) [Compound 211] | 100 to 1000
14 | CCC(=O)Nc1ccc(C(C)(O)Cn2c(C#N)cc3c(C)c(CN4CCC(Nc5ncnc6sc(CC(F)(F)F)cc56)CC4)ccc32)cn1 (centres unmarked) [Compound 212] | 30 to 100
15 | C=CC(=O)Nc1ccc(C2(Cn3c(C#N)cc4c(C)c(CN5CCC(Nc6ncnc7sc(CC(F)(F)F)cc67)CC5)ccc43)CC2)cn1 [Compound 216] | 100 to 1000
16 | Cc1c(CN2CCC(Nc3ncnc4sc(CC(F)(F)F)cc34)CC2)ccc2c1cc(C#N)n2CCP(C)(C)=O [Compound 218] | 100 to 1000
17 | C=CC(=O)NC1CCC(Cn2c(C#N)cc3c(C)c(CN4CCC(Nc5ncnc6sc(CC(F)(F)F)cc56)CC4)ccc32)C1 (centres unmarked) [Compound 219] | 30 to 100
18 | C=CC(=O)N1CC2CCC(C1)N2CCn1c(C#N)cc2c(C)c(CN3CCC(Nc4ncnc5sc(CC(F)(F)F)cc45)CC3)ccc21 [Compound 229] | < 30
19 | C=CS(=O)(=O)N1CCN(CCn2c(C#N)cc3c(C)c(CN4CCC(Nc5ncnc6sc(CC(F)(F)F)cc56)CC4)ccc32)C[C@@H]1C [Compound 230] | < 30
20 | C=CS(=O)(=O)Nc1ccc(CCn2c(C#N)cc3c(C)c(CN4CCC(Nc5ncnc6sc(CC(F)(F)F)cc56)CC4)ccc32)cc1 [Compound 231] | < 30
21 | C=CS(=O)(=O)NC1CCN(CCn2c(C#N)cc3c(C)c(CN4CCC(Nc5ncnc6sc(CC(F)(F)F)cc56)CC4)ccc32)CC1 [Compound 232] | < 30
22 | C=CC(=O)N1CCC(Cn2c(C#N)cc3c(C)c(CN4CCC(Nc5ncnc6sc(CC(F)(F)F)cc56)CC4)ccc32)CC1 [Compound 233] | 30 to 100
23 | [2H]C([2H])=C([2H])C(=O)Nc1ccc(CCn2c(C#N)cc3c(C)c(CN4CCC(Nc5ncnc6sc(CC(F)(F)F)cc56)CC4)ccc32)cc1 [Compound 241] | 30 to 100
24 | [2H]C([2H])=C([2H])C(=O)Nc1ccc(C(O)Cn2c(C#N)cc3c(C)c(CN4CCC(Nc5ncnc6sc(CC(F)(F)F)cc56)CC4)ccc32)cn1 (centres unmarked) [Compound 242] | 30 to 100
25 | C=CC(=O)Nc1ccc([C@](C)(O)Cn2c(C#N)cc3c(C)c(CN4CCC(Nc5ncnc6sc(CC(F)(F)F)cc56)CC4)ccc32)cc1 [Compound 243] | 30 to 100
26 | C=CC(=O)Nc1ccc([C@@](C)(O)Cn2c(C#N)cc3c(C)c(CN4CCC(Nc5ncnc6sc(CC(F)(F)F)cc56)CC4)ccc32)cc1 [Compound 244] | 30 to 100
27 | CCC(=O)Nc1ccc(CCn2c(C#N)cc3c(C)c(CN4CCC(Nc5ncnc6sc(CC(F)(F)F)cc56)CC4)ccc32)cn1 [Compound 254] | 100 to 1000

Target: T2, menin (Homo sapiens, UniProt O00255)
T2 sequence (O00255 1-610): T1 sequence (O00255 1-610)
Assay: Crystal structure of menin in complex with compound
Details: FIG. 1

Row | Compound | covalent binding of the compound to a Cys residue on menin
28 | C=CS(=O)(=O)N1CCN(CCn2c(C#N)cc3c(C)c(CN4CCC(Nc5ncnc6sc(CC(F)(F)F)cc56)CC4)ccc32)CC1 [Compound 3, 4-methyl-1-(2-(4-vinylsulfonylpiperazin-1-yl)ethyl)-5-((4-((6-(2,2,2-trifluoroethyl)thieno[2,3-d]pyrimidin-4-yl)amino)piperidin-1-yl)methyl)-1H-indole-2-carbonitrile] | covalent binding of the compound to a Cys residue on menin

System: MV4; 11 cells (harboring MLL-AF4 fusion protein)
Assay: In vivo xenograft study with MV4;11 cells injected subcutaneously
Parameters: species or system CB17 SCID mice
Details: once daily, i.p., 25 mg/kg; treatment initiated when tumors reached ~100 mm^3
Source text: FIG. 3 depicts in vivo xenograft studies with MV4; 11 cells (harboring MLL-AF4 fusion protein) injected subcutaneously into CB17 SCID mice.
Efficacy Study in Mouse Xenograft Tumor Model.
Immunodeficient mice, such as 8-10 week-old female nude (nu/nu) mice, are used for in vivo efficacy studies in accordance with the guidelines approved by IACUC. Leukemia cells, such as human MV4-11 leukemia cells available from ATCC, are implanted subcutaneously via needle into female nude mice (5×10^6 cells/mouse). When the tumor reaches a size of approximately 100 mm^3 in mice, the tumor-bearing mice are randomly assigned to a vehicle control or compound treatment group (8 animals per group). Animals are treated with a compound of the present invention by oral gavage or intraperitoneal injection in an appropriate amount and frequency as can be determined by the skilled artisan without undue experimentation. Subcutaneous tumor volume in nude mice and mice body weight are measured twice weekly. Tumor volumes are calculated by measuring two perpendicular diameters with calipers (V=(length×width^2)/2). Percentage tumor growth inhibition (% TGI=1−[change of tumor volume in treatment group/change of tumor volume in control group]*100) is used to evaluate anti-tumor efficacy. Statistical significance is evaluated using a one-tailed, two sample t test. P<0.05 is considered statistically significant.

Row | Compound | tumor volume
29 | C=CS(=O)(=O)N1CCN(CCn2c(C#N)cc3c(C)c(CN4CCC(Nc5ncnc6sc(CC(F)(F)F)cc56)CC4)ccc32)CC1 [Compound 3, 4-methyl-1-(2-(4-vinylsulfonylpiperazin-1-yl)ethyl)-5-((4-((6-(2,2,2-trifluoroethyl)thieno[2,3-d]pyrimidin-4-yl)amino)piperidin-1-yl)methyl)-1H-indole-2-carbonitrile] | strong reduction of tumor volume
